{"source": "paper PMC11491004", "about": "“CHF6523 data suggest that the phosphoinositide 3-kinase delta isoform is not a suitable target for the management of COPD” (Respiratory Research, 2024)", "key": {"proteins in sputum": {"test_system": "proteins in sputum", "experiment": "Olink proteomics in sputum (Target 96 Inflammation and Target 48 Cytokine panels)", "type": "in vivo, human", "protocol": "For the proteomics evaluation, sputum samples were run on the Target 48 Cytokine panel, and the Target 96 Inflammation panel (Olink Protemics, Uppsala, Sweden). In the Target 48 Cytokine panel, 45 cytokines were quantified in terms of their absolute concentration. For the Target 96 Inflammation panel, 92 proteins involved in inflammation processes were evaluated, with the results expressed as Normalized Protein eXpression (NPX; the manufacturer’s arbitrary unit, in Log2 scale). […] In the statistical model, using sputum Target 96 and 48 data, change from pre-dose to post-dose expression were used as dependent variable, and patient, period, treatment and pre-dose expression as independent variable."}, "[1]": {"test_system": "genes in blood and sputum", "experiment": "Transcriptomics (RNA-seq) in blood and sputum", "type": "in vivo, human", "protocol": "PAXgene RNA blood samples and induced sputum samples collected in Trizol were analysed at Almac Diagnostic Services (Craigavon, Northern Ireland, UK). RNA extraction and quality assessment of the PAXGene blood and sputum samples were performed, prior to downstream next generation sequencing (NGS). To minimise any technical variability, samples were randomised into processing batches for RNA extraction and NGS library preparation.\nAfter extraction, all RNA underwent quality assessment. PAXGene RNA samples were assessed using a combination of Nanodrop (quantity) and the Agilent Tapestation (integrity), and Sputum RNA samples were assessed using the Qubit RNA assay (quantity) and Agilent Tapestation (integrity). Nanodrop was used for quantity assessment of RNA extracted from sputum in order to preserve a sample for downstream library preparation input.\nUpon successful completion of the quality assessment, samples underwent library preparation using Kapa RNA Hyperprep with Riboerase kit. PAXGene Blood RNA samples were also treated with globin depletion oligos. Following library preparation, all generated libraries underwent quality assessment (quantification via Quant-iT dsDNA high-sensitivity assay, and fragment size assessment via the Agilent Tapestation) before being loaded on to a NovaSeq 6000 and sequenced with a total read length of 2x76bp, to a read budget of 50 million paired end reads (total 100 million reads) per sample. Processing control samples were included in the processing batch. Upon completion of sequencing, the quality of sequencing was assessed for the following parameters: clusters passing filter, Q30 scores, error rate, cluster density and read distribution.\nRaw sequence data in FASTQ format were subject to a number of quality control assessment steps hosted on the DNAnexus cloud platform. Basic sequencing metrics such as GC content were calculated from unaligned reads using FastQC. Potential ribosomal RNA (rRNA) contamination was assessed using the Burrows-Wheeler Aligner (BWA) and samtools flagstat to determine the number of reads aligning to a ribosomal RNA (rRNA) sequence database. Read alignment to the human reference genome GRCh38 was then performed using StarAlign, with outputs used to calculate post-alignment quality control (QC) metrics such as duplication rate, calculated using Picard MarkDuplicates and a housekeeping coverage metric using a custom script. […] Both pre- and post alignment QC metrics were then reviewed to check for potential problems originating from the sequencing run or starting library material.\nThe aim was to identify genes that were differentially expressed in response to treatment with CHF6523 from blood and sputum samples.\nThe ANCOVA model was specified as change from pre-dose to post-dose expression as dependent variable. The independent variables were treatment (reference: placebo), patient, period, and pre-dose expression.\nFunctional enrichment was performed on those differentially expressed gene lists that had at least 20 genes with FDR<0.05 using ToppFun enrichment on the ToppGene website (https://toppgene.cchmc.org/enrichment.jsp, accessed 05 May 2023 [4]). The background of the enrichment used were those genes that were available in the original datamatrix."}}, "data": [{"compound": "C[C@@H](c1oc(=O)c2ccccc2c1-c1cccc(CN2CCN(C)CC2)c1)n1nc(-c2cncc(O)c2)c2c(N)ncnc21", "note": "[CHF6523]", "values": [{"measurement": "Fold change in the Olink panels: IL-1B", "setting": "proteins in sputum", "result": 0.771}, {"measurement": "Fold change in the Olink panels: IL-6", "setting": "proteins in sputum", "result": 1.516}, {"measurement": "Fold change in the Olink panels: IL-8", "setting": "proteins in sputum", "result": 1.151}, {"measurement": "Fold change in the Olink panels: MCP-1", "setting": "proteins in sputum", "result": 0.732}, {"measurement": "Fold change in the Olink panels: TNF", "setting": "proteins in sputum", "result": 0.821}, {"measurement": "Proteins significantly modulated by treatment, of the 74 evaluated", "setting": "proteins in sputum; FDR < 0.05", "result": "none were significantly modulated by treatment"}, {"measurement": "Differentially expressed genes in blood", "setting": "[1]; blood, RNA-seq, 24 patients", "result": "No differentially expressed genes"}, {"measurement": "|log2FC| of the six genes with |log2FC| >1", "setting": "[1]; sputum", "result": "1.019–1.067"}, {"measurement": "TLR1 log2FC", "setting": "[1]; sputum, FDR = 0.0155", "result": 0.71}, {"measurement": "TLR10 log2FC", "setting": "[1]; sputum, FDR = 0.0418", "result": 0.48}, {"measurement": "TLR6 log2FC", "setting": "[1]; sputum, FDR = 0.0451", "result": 0.52}, {"measurement": "Genes significantly differentially expressed in sputum", "setting": "[1]; sputum, RNA-seq, FDR < 0.05, more than 38,000 genes evaluated", "result": 126, "unit": "genes"}, {"measurement": "Differentially expressed genes in sputum that were upregulated", "setting": "[1]; sputum, of 126", "result": 119, "unit": "genes"}]}]}
